The values that follow come from patent publication US8217028B2, “1,2,4-oxadiazole indole compounds” (Glaxo Group Limited, priority 2008, dated 2012).

The target of the test is T1, human S1P1 receptor (EDG1) (Homo sapiens, UniProt P21453).
T1 construct: expressed in transfected cells; host or cells: rat hepatoma cells (membranes, GTPγS assay) or Tango GPCR-bla U2OS cells (Tango assay)
T1 sequence (P21453 whole entry): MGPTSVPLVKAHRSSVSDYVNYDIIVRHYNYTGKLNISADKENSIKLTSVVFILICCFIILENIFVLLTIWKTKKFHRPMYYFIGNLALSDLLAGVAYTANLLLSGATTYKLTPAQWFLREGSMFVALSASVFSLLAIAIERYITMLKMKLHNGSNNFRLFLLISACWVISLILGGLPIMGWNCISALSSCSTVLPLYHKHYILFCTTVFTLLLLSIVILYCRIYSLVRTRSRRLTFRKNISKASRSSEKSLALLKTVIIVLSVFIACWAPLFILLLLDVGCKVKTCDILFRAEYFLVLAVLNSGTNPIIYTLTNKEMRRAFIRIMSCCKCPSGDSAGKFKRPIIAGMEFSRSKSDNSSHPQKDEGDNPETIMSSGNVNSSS
Briefly: S1P1 GTPγS assay or S1P1 Tango assay (at least one of the above assays). The format is cell-based. The note with it: in at least one of the S1P1 GTPγS and S1P1 Tango assays. The procedure:
For membrane preparations all steps were performed at 4° C. Rat hepatoma cells stably expressing the human S1P1 receptor or Rat Basophilic Leukaemia cells (RBL) stably expressing human S1P3 receptor were grown to 80% confluency before being harvested into 10 ml Phospho-Buffered Saline (PBS) and centrifuged at 1200 rpm for 5 minutes. After removal of the supernatant, the pellet was re-suspended and cells were homogenised within a glass Warning blender for 2 bursts of 15 secs in 200 mls of buffer (50 mM HEPES, 1 mM leupeptin, 25 μg/ml bacitracin, 1 mM EDTA, 1 mM PMSF, 2 μM pepstatin A). The blender was plunged into ice for 5 mins after the first burst and 10-40 mins after the final burst to allow foam to dissipate. The material was then spun at 500 g for 20 mins and the supernatant spun for 36 mins at 48,000 g. The pellet was resuspended in the same buffer as above but without PMSF and pepstatin A. The material was then forced through a 0.6 mm needle, made up to the required volume, (usually ×4 the volume of the original cell pellet), aliquoted and stored frozen at −80° C.
Human S1P1 rat hepatoma membranes (1.5 μg/well) were adhered to a wheatgerm agglutinin (WGA)-coated scintillation proximity assay (SPA) beads (0.125 mg/well) in assay buffer (HEPES 20 mM, MgCl2 10 mM, NaCl 100 mM and pH adjusted to 7.4 using KOH 5M, GDP 10 μM FAC (final assay concentration) and saponin 90 μg/ml FAC was also added).
After 30 minutes pre-coupling on ice the bead and membrane suspension was dispensed into a white Greiner polypropylene LV384-well plate (5 μl/well), containing 0.1 μl of the compound. 5 μl/well [^35S]-GTPγS (0.5 nM final radioligand conc) made up in assay buffer was then added to agonist plates. The final assay cocktail (10.1 μl) was then centrifuged at 1000 rpm for 5 minutes then read immediately on a Viewlux reader.
All test compounds were dissolved in DMSO at a concentration of 10 mM and were prepared in 100% DMSO using a 1 in 4 dilution step to provide 11 point dose response curves. The dilutions were transferred to the assay plates ensuring that the DMSO concentration was constant across the plate for all assays. All data was normalized to the mean of 16 high and 16 low control wells on each plate. A four parameter curve fit was then applied.
Recombinant EDG1-bla/U2OS cells (contain the human Endothelial Differentiation Gene 1 (EDG1) linked to a TEV protease site and a Ga14-VP16 transcription factor stably integrated into the Tango GPCR-bla U2OS parental cell line) were suspended in assay medium (Invitrogen Freestyle Expression Medium) at a density of 312, 500 cells/ml. Add 100 μl/well of the assay medium to the cell-free control wells (column 12) and 100 μl/well of the cell suspension to the test compound wells (row 2-8, column 1-10), the unstimulated control wells (DMSO) (column 11), and stimulated control wells (S1P) (row 1, column 1-10) in a Corning black-well, clear bottom 96-well plate. Cells were incubated at 37° C., 5% CO2 for 44-48 h. […]
After incubation at 37° C., 5% CO2 for 5 h, 25 μl of 6× substrate mixture (6 μl Solution A (1 mg LiveBLAzer™-FRET B/G substrate (CCF4-AM) in 912 μl DMSO) plus 60 μl Solution B plus 934 μl Solution C) was added to each well and incubate at room temperature for 2 h in dark. The plate was finally read on EnVision for two emission channels (460 nm and 530 nm). […]
The molecule `CC(C)Cn1cc(CCC(=O)O)c2cccc(-c3noc(-c4ccc(OC(C)C)c(Cl)c4)n3)c21` [Example 30, 3-[7-(5-{3-chloro-4-[(1-methylethyl)oxy]phenyl}-1,2,4-oxadiazol-3-yl)-1-(2-methylpropyl)-1H-indol-3-yl]propanoic acid] showed an EC50 of less than 10 µM.

`COc1ccc(-c2nc(-c3cccc4c(CCC(=O)O)cn(C)c34)no2)cc1OC` [Example 44, 3-(7-{5-[3,4-bis(methyloxy)phenyl]-1,2,4-oxadiazol-3-yl}-1-methyl-1H-indol-3-yl)propanoic acid] showed an EC50 of less than 10 µM.

Consider `CC(C)Oc1ccc(-c2nc(-c3ccc4[nH]c(C(=O)O)cc4c3)no2)cc1Cl` [Example 8, Sodium 5-(5-{3-chloro-4-[(1-methylethyl)oxy]phenyl}-1,2,4-oxadiazol-3-yl)-1H-indole-2-carboxylate], for which the EC50 was less than 10 µM.

In turn, `CCCCn1cc(CCC(=O)O)c2cccc(-c3noc(-c4ccc(OC(C)C)c(Cl)c4)n3)c21` [Example 29, 3-[1-butyl-7-(5-{3-chloro-4-[(1-methylethyl)oxy]phenyl}-1,2,4-oxadiazol-3-yl)-1H-indol-3-yl]propanoic acid] gave an EC50 of less than 10 µM.

For the molecule `CC(C)Oc1ncc(-c2nc(-c3ccc4c(CN5CCC(C(=O)O)CC5)c[nH]c4c3)no2)cc1Cl` [Example 78, 1-{[6-(5-{5-chloro-6-[(1-methylethyl)oxy]-3-pyridinyl}-1,2,4-oxadiazol-3-yl)-1H-indol-3-yl]methyl}-4-piperidinecarboxylic acid], the EC50 was less than 10 µM.

What is called EC50 is the concentration at which the effect is half-maximal. Read a high EC50 as lower potency in that assay.
